From patent publication US11903917B2, “MEK-inhibitor for the treatment of viral and bacterial infections” (priority 2017, dated 2024)
Several values for one entry are separate records, joined by “and”; a condition that tells them apart may be missing. Equal entries are not always repeated.

Experiments:
[1] = system: influenza virus strain A/Regensburg/D6/2009 (RB1, H1N1 pdm09); assay: Example 1: virus titer in the lung of infected mice, AVICEL plaque assay; assay type: in vivo, C57BL/6 mice
Protocol: 8 weeks old C57BL/6 mice (five per group) were infected with 1.5×10^5 PFU (5×MLD50) of the influenza virus strain A/Regensburg/D6/2009, (RB1, H1N1 pdm09). […] All animals received a volume of 200 μl per os. Mice were sacrificed 24 h post infection and lungs were weighed, transferred into a Lysing Matrix D tube (MP Bio) and BSS (buffered salt solution) in an amount of the 10-fold volume of the lung was applied to the samples. Organs were shredded using the FastPrep FP 120 (Savant). To remove the cell debris the homogenates were centrifuged for 15 min at 2000 rpm and the supernatant collected. The determination of virus titer in homogenates was performed using the AVICEL® plaque assay. Results are presented in FIG. 1 as virus titer (log 10) pfu/ml (left) or % virus titer (right). Virus titer was determined by two investigators independently. Mean values from all titrations were presented.

S. aureus = assay: Resistance development during 17 days of constant treatment; assay type: cell-based, Staphylococcus aureus; conditions: 24 h cycles repeated for 17 days
[2] = system: Streptococcus pneumoniae strain TIGR4 (serotype 4); assay: Over-night growth of Streptococcus pneumoniae (OD600, bacterial titers); assay type: cell-based; conditions: over night treatment
Protocol: (§1) Similar to S. aureus, the majority of Streptococcus pneumoniae strains express eukaryotic-like serine/threonine kinases, such as PknB, which are highly conserved between different genera. Additionally, these kinases share high homology to cellular MAP kinases (e.g. ERK, JNK, p38). […] Thus, the impact of PD-0184264 on different strains of Streptococci pneumonia was analyzed. Streptococcus pneumoniae strains can be divided into different serotypes, which differ in their virulence and overall pathogenicity. To test for a serotype- or strain-independent effect, we used the encapsulated strains D39 and TIGR4, which are both virulent, but belong to different serotypes. […] Then, the OD600 was measured again (Results shown in FIG. 11A) and dilution series were objected to BHI agar plates to determine bacterial titers (Results shown in FIG. 11B).

[3] = system: Streptococcus pneumoniae strain D39 wt (serotype 2); assay: as above; assay type: cell-based; conditions: over night treatment
Protocol: as §1

S. aureus 6850 [4] = assay: Over-night treated culture, bacterial titers (CFU/ml) and OD600; assay type: cell-based, Staphylococcus aureus
S. aureus 6850 [5] = assay: Time-of-addition assay, bacterial titers at 0, 3 and 6 h, then medium exchange; assay type: cell-based, Staphylococcus aureus
Bacillus subtilis = assay: Bacterial load of B. subtilis after 18 h (OD600, plating); assay type: cell-based
Protocol: Specifically, to test for a potential antibacterial effect on B. subtilis, over-night cultures of B. subtilis were incubated with either solvent or different concentrations of the MEK inhibitor PD-0184264 (as indicated) for 18 h. Afterwards, bacterial load was determined via measurement of the OD600 and plating of serial dilutions on BHI agar plates. Data shown in FIG. 11 represent means+SD of three independent experiments.

[6] = system: A549 cells infected with influenza virus (IV) and S. aureus 6850; assay: Example 8: cytopathic effect in A549 cells infected with influenza virus and S. aureus 6850, light microscopy; assay type: cell-based, human; conditions: 10 μM, until 24 h p.i., super-infection
Protocol: Influenza virus (IV) infection results in enhanced expression of antiviral cytokines, most importantly type I IFNs that activate critical downstream antiviral responses and may also potentiate subsequent bacterial infections. […] Specifically, A549 cells were pre-treated for 1 h with 10 μM of the specific MEK-inhibitor PD-0184264 or DMSO as solvent control. Afterwards, cells were rinsed with PBS and infected with influenza virus (IV) (MOI as indicated) for 30 min at 37° C., 5% CO2. Subsequently, cells were washed with PBS and infected with S. aureus 6850 (MOI as indicated) in the presence or absence of the inhibitor for 3 h. To avoid bacterial over-growth, an antibiotic wash step with lysostaphin (2 μg/mL) was performed for 20 min at 37° C. to remove not-internalized bacteria. Then, cells were washed once and were further incubated until 24 h p.i. in the presence of the inhibitor or solvent. At the end of the incubation period, the cell monolayer was analyzed via light microscopy.

MRSA strain USA300 = assay: Bacterial growth under heat stress (42° C., 6 h) after inhibitor treatment; assay type: cell-based, Staphylococcus aureus; conditions: 20 μM over night, then 42° C. for 6 h, MRSA USA300, vs solvent
Protocol: (§2) As the kinase is known to play an important role in bacterial stress resistance, bacterial growth under heat stress was monitored after treatment of the bacteria with the inhibitor PD-0184264. S. aureus strain 6850 and MRSA strain USA300 were treated over night with either solvent or 20 μM of the PD-0184264. The next day subcultures with the same amount of bacteria were prepared (confirmed by OD600 and plating on BHI agar) and further incubated at 42° C. for 6 h. Bacterial titers were then calculated via plating of serial dilutions on BHI agar plates. […] This is both observed for the methicillin-sensitive strain 6850 (black bars) as well as for the MRSA strain USA300 (grey bars). Impaired stress tolerance in the presence of the inhibitor is another indication that PD-0184264 directly targets the kinase PknB, which is an important mediator of stress resistance. In summary, the data provide strong circumstantial evidence, that PD-0184264 elicits its antibacterial action by inhibition of the bacterial kinase PknB.

S. aureus strain 6850 = assay: as above; assay type: cell-based, Staphylococcus aureus; conditions: 20 μM over night, then 42° C. for 6 h, strain 6850, vs solvent
Protocol: as §2

[7] = system: influenza A virus strain RB1 [A/Regensburg/D6/09 (H1N1 pdm09)]; assay: Progeny virus inhibition assay in A549 cells; assay type: cell-based
[8] = WST-Assay (cell viability); assay type: cell-based; conditions: human, A549 cells, FIG. 17C
Protocol: A549 cells were seeded in a 96-well flat-bottom tissue plate (Greiner, Germany) and were grown overnight. […] Thereafter, 10 μl WST-1 reagent (Roche, Germany) was added to the culture medium and incubated for four hours. During this time, the stable tetrazolium salt WST-1 was cleaved to a soluble formazan by metabolically active cells in the culture. After this incubation period, the formazan dye formed was quantitated with ELISA reader at 405 nm. The measured absorbance directly correlated to the number of viable cells.

In the case of `O=C(O)c1ccc(F)c(F)c1Nc1ccc(I)cc1Cl` [PD-0184264, 2-(2-chloro-4-iodophenylamino)-N-3,4-difluoro benzoic acid], the “effect on virus titer in the lung (FIG. 1)” value ([1]; 25 mg/kg per os, 8 h interval, 24 h post infection) is reported as “same effect as 150 mg/kg CI-1040”, the “efficacy in vivo by oral administration (Example 1)” value ([1]; 25 and 75 mg/kg) is reported as “effective” and the “resistance development in S. aureus” value (S. aureus) is reported as “did not induce resistance”. For the same compound, the “sensitivity of growth (OD600, bacterial titers)” value [2] was “sensitive”, the “sensitivity of growth (OD600, bacterial titers)” value [3] was “sensitive” and the “reduction of bacterial growth (FIG. 4)” value (S. aureus 6850 [4]; 10 μM, over night, S. aureus 6850) was “significant reduction of growth”. The “reduction of bacterial titers” value (S. aureus 6850 [4]; 20 μM, over night, S. aureus 6850, CFU/ml) was 1.5-2 orders of a magnitude, the “effect on bacterial titers (CFU/ml)” value (S. aureus 6850 [4]; over night treatment, S. aureus 6850, vs solvent) was “very strong reduction in bacterial load” and the “inhibition of bacterial growth, compared with U0126 and gentamicin (0.5 or 2 μg/ml)” value (S. aureus 6850 [5]; S. aureus 6850, 3 h and 6 h post inoculation) was “strongest inhibition of bacterial growth”. The “mode of antibacterial action after medium exchange” value (S. aureus 6850 [5]; cultures further incubated without substances reached turbidity of solvent culture) was “bacteriostatic rather than a bactericidal action”, the viable bacterial counts (Bacillus subtilis; 10 μM) was “strong decrease in viable bacterial counts” and the viable bacterial counts (Bacillus subtilis; concentrations higher than 10 μM) was “complete abolishment”. For the same compound, the “cytopathic effect (CPE)” value [6] was “completely abolished”, the “bacterial growth under heat stress (bacterial titers)” value (MRSA strain USA300) was “strongly impaired” and the “bacterial growth under heat stress (bacterial titers)” value (S. aureus strain 6850) was “strongly impaired”. The “reduction of progeny virus” value [7] was “almost no reduction”, the “reduction of virus titer” value [7] was 98.87±0.03% and 91.50±2.08% and 58.97±4.45% and the “fold higher EC50 value compared to the EC50 value of CI-1040” value ([7]; CI-1040 value from Haasbach et al. 2017) was 31 fold. The EC50 ([7]; Influenza A virus, H1N1, RB1 on A549 cells, FIG. 17B) was 0.804 µM, the “S.I. (selectivity index)” value ([7]; against RB1 on A549 cells) was 1960 and the “fold higher concentration needed to achieve similar reduction of progeny influenza virus as 10 μM CI-1040” value ([7]; in vitro, A549) was about 10 fold. The CC50 at 24 h [8] was over 1580 µM.
